In brackets after ≈: the same amount, converted by molar mass. Values belong to the molecule of their own block, whether it stands above or below them.
Experiments:
[1] = Solubility in simulated gastric and intestinal fluids; type: physicochemical; details: for Final pH: solubility test
Text: Solubility of compound Example No. 1 in simulated gastric and in simulated intestinal fluids at room temperature
Solubility of compound Example No. 3 (free form/acetate salt form) in simulated gastric fluids: […]

[2] = system: Bone marrow cells from CBA mice; test: Bone marrow cell proliferation (BM) assay; type: cell-based; details: Mus musculus, 3H-thymidine incorporation, four days incubation
Protocol: Bone marrow cells from CBA mice (2.5×10^4 cells per well in flat bottom tissue culture microtiter plates) were incubated in 100 μL RPMI medium containing 10% FCS, 100 U/mL penicillin, 100 μg/mL streptomycin (Gibco BRL, Basel Switzerland), 50 μM 2-mercaptoethanol (Fluka, Buchs, Switzerland), WEHI-3 conditioned medium (7.5% v/v) and L929 conditioned medium (3% v/v) as a source of growth factors and serially diluted compounds. Seven three-fold dilution steps in duplicates per test compounds were performed. After four days of incubation 1 μCi ^3H-thymidine was added. Cells were harvested after an additional five-hour incubation period, and incorporated ^3H-thymidine was determined according to standard procedures. Conditioned media were prepared as follows. WEHI-3 cells (ATCC TIB68) and L929 cells (ATCC CCL 1) were grown in RPMI medium until confluence for 4 days and one week, respectively. Cells were harvested, resuspended in the same culture flasks in medium C containing 1% FCS (Schreier and Tess 1981) for WEHI-3 cells and RPMI medium for L929 cells and incubated for 2 days (WEHI-3) or one week (L929). The supernatant was collected, filtered through 0.2 μm and stored in aliquots at −80° C. Cultures without test compounds and without WEHI-3 and L929 supernatants were used as low control values. Low control values were subtracted from all values. […]

[3] = Chemical stability of the trihydrate of example 1; type: physicochemical
[4] = Chemical stability of amorphous and crystalline example No. 1 (solid state); type: physicochemical; details: for Purity: 1 week; for Initial Purity: before exposure
[5] = Blood levels and pharmacokinetics after oral administration of compound of example No. 1; type: in vivo, Beagle dogs; details: example 3 main component in blood after around an hour
Protocol: A single dose of the compound of example 1 (3.0 mg/kg) was administered p.o. to 3 male Beagle dogs. Compound 1 was dosed as an aqueous suspension of the crystalline monohydrate form in Methylcellulose (0.5%): Tween 80 (1%) (90:10). Blood was taken in regular intervals by venipuncture, and the samples were analyzed for a period of up to 24 hours. The compounds of the examples 1, 2, and 3 were quantitatively assessed over time, and the results are tabulated below:
Key pharmacokinetic parameters (mean values±standard deviations (n=3) for 1, 2 and 3 after oral dosing of example No. 1.

[6] = Physical stability: equilibration of suspension, XRPD of isolated solid; type: physicochemical; details: based upon the equilibration experiments
Protocol: Samples of example 1 free base which are a mixture of monohydrate and trihydrate were suspended in an organic solvent water mixture of water and equilibrated for about 4 days at 25°. […] After equilibration the suspension was filtered and the solid material isolated and analysed by XRPD.

Structure (SMILES): Cc1cccc2c(C3=C(c4nc(N5CCNC6(CC6)C5)cc5ccccc45)C(=O)N(COP(=O)(O)O)C3=O)c[nH]c12 [Example 1, Phosphoric acid mono-[3-[3-(4,7-diaza-spiro[2.5]oct-7-yl)-isoquinolin-1-yl]-4-(7-methyl-1H-indol-3-yl)-2,5-dioxo-2,5-dihydro-pyrrol-1-ylmethyl]ester]
solubility ([1]; Fasted state simulated intestinal fluid (FaSSIF) pH 6.5, room temperature): 100 µg/mL (≈ 174 µM) | solubility ([1]; Fed state simulated intestinal fluid (FeSSIF) pH 5.8, room temperature): 130 µg/mL (≈ 227 µM) | solubility ([1]; Simulated gastric fluid (SGF) pH 2, room temperature): 40 µg/mL (≈ 69.7 µM) | Final pH ([1]; FaSSIF pH 6.5): 6.59 | Final pH ([1]; FeSSIF pH 5.8): 6.05 | Final pH ([1]; SGF pH 2): 2.22 | IC50 [2]: 6740 ± 1120 nM | Purity of example 1 in % ([3]; 2 weeks 50° C.): 95.57% | Sum of related. Substances in area % ([3]; 2 weeks 50° C.): 4.52 area % | Purity of example 1 in % ([3]; 2 weeks 50° C./75% RH): 96.20% | Sum of related. Substances in area % ([3]; 2 weeks 50° C./75% RH): 3.66 area % | Purity of example 1 in % ([3]; initial): 98.06% | Sum of related. Substances in area % ([3]; initial): 1.64 area % | Purity ([4]; Amorphous, 50 ° C.): 95.8% | Purity ([4]; Amorphous, 80 ° C.): 89.7% | Initial Purity ([4]; Amorphous): 98.5% | Purity ([4]; Crystalline monohydrate, 50 ° C.): 100% | Purity ([4]; Crystalline monohydrate, 80 ° C.): 100% | Initial Purity ([4]; Crystalline monohydrate): 100% | conversion of prodrug into parent compound in blood [5]: effective and favorable conversion into a parent compound

Final pH ([1]; Acetate Salt, FaSSIF pH 6.5): 3.97 | Final pH ([1]; Acetate Salt, FeSSIF pH 5.8): 6.5 | Final pH ([1]; Acetate Salt, SGF pH 2): 5.45 | solubility ([1]; fasted state simulated intestinal fluid (FaSSIF), Acetate Salt, FaSSIF pH 6.5): 50 µg/mL | solubility ([1]; fed state simulated intestinal fluid (FeSSIF), Acetate Salt, FeSSIF pH 5.8): 550 µg/mL | solubility ([1]; simulated gastric fluid (SGF), simulated gastric fluid, Acetate Salt, SGF pH 2): 150 µg/mL
Structure (SMILES): Cc1cccc2c(C3=C(c4nc(N5CCNC6(CC6)C5)cc5ccccc45)C(=O)NC3=O)c[nH]c12 [Example 3, 3-[3-(4,7-diaza-spiro[2.5]oct-7-yl)-isoquinolin-1-yl]-4-(7-methyl-1H-indol-3-yl)-pyrrole-2,5-dione]
IC50 [2]: 1670 ± 256 nM

Structure (SMILES): Cc1cccc2c(C3=C(c4nc(N5CCNC6(CC6)C5)cc5ccccc45)C(=O)N(COP(=O)(O)O)C3=O)c[nH]c12.O.O.O [trihydrate of example 1, phosphoric acid mono-[3-[3-(4,7-diaza-spiro[2.5]oct-7-yl)-isoquinolin-1-yl]-4-(7-methyl-1H-indol-3-yl)-2,5-dioxo-2,5-dihydro-pyrrol-1-ylmethyl]ester, trihydrate]
relative thermodynamic stability of hydrate forms [6]: thermodynamically more stable than the monohydrate

Source: US20150284364A1, “SUBSTITUTED INDOLE DERIVATIVES” (priority 2012, published 2015)
